The values below come from US9423396B2, “Bodipy structure fluorescence probes for diverse biological applications” (National University of Singapore, priority 2011, dated 2016).

Molecules are shown by their SMILES.

One data set concerns Beta TC-6 cells. The experiment in a line: High throughput cell-based screening on acinar, Alpha TC-1 and Beta TC-6 cells. Details: species or system mouse. The following applies: 1 μM, 1 hr to 48 hours, 384-well plates. The method, then: To discover pancreatic islet selective probes, we expanded the other two types of BODIPY library generated from the original GY (Glucagon Yellow) structure. We started with high throughput cell-based screening using mouse acinar cells composed of exocrine tissue, mouse Alpha TC-1 cells and Beta TC-6 cells composed of endocrine pancreas islets. Those three different types of cells were prepared side by side in 384-well plates and incubated with 1 μM of BODIPY compounds for different incubation times ranging from 1 hr to 48 hours. The fluorescence images were acquired on an automated imaging microscope system ImageXpress Micro™. The fluorescence intensity of the stained cells was analyzed using MetaXpress® image processing software.

Data set [1] is described as follows: Spectroscopic measurements (absorption, emission, quantum yield, extinction coefficient). The following applies: BDNCA library. The class given is physicochemical.

`CC1=CC(/C=C/c2cc(C)c(OCc3ccccc3)c(C)c2)=[N+]2C1=C(c1ccc(NC(=O)CCl)cc1)c1cccn1[B-]2(F)F` [BDNCA-16]: the “staining of alpha cells and beta cells compared with acinar cells” value in the data set with Beta TC-6 cells is “stained either both alpha cells and beta cells or beta cells only as compared with acinar cells”. Further, in data set [1], the “Qunt. Yield” value turned out to be 0.13. In data set [1] (absorption), the Abs is 562 nm. The compound further displayed a Flu-Abs in data set [1] (difference emission minus absorption) of 23. For the same compound, the ε in data set [1] (extinction coefficient, in M-1 cm-1 (unit assumed)) is listed as 55,469. In data set [1] (fluorescence emission), this compound displayed a Flu of 585.
